Data as given in ChEMBL document CHEMBL1151200, “Comparison of fascaplysin and related alkaloids: a study of structures, cytotoxicities, and sources” (J Nat Prod, 2004).
pIC50: −log10 of the molar value.

What was measured:
[1] = Cytotoxicity against human H125 cells at 64 ug/disk by disk diffusion soft agar colony formation assay; type: functional
[2] = tested on: L1210; assay: Cytotoxicity against mouse L1210 cells at 64 ug/disk by disk diffusion soft agar colony formation assay; type: functional
[3] = Cytotoxicity against human H116 cells at 64 ug/disk by disk diffusion soft agar colony formation assay; type: functional
[4] = tested on: MC-38; assay: Cytotoxicity against mouse C38 cells at 64 ug/disk by disk diffusion soft agar colony formation assay; type: functional
[5] = tested on: HCT-15; assay: Antitumor activity against human HCT15 cells; type: functional, cell-based
[6] = tested on: T47D; assay: Antitumor activity against human T47D cells; type: functional, cell-based
[7] = tested on: RPMI-8226; assay: Antitumor activity against human RPMI8226 cells; type: functional, cell-based
[8] = tested on: A549; assay: Antitumor activity against human A549/ATCC cells; type: functional, cell-based
[9] = tested on: L1210; assay: Cytotoxicity against mouse L1210 cells 6.4 ug/disk by disk diffusion soft agar colony formation assay; type: functional
[10] = tested on: EKVX; assay: Antitumor activity against human EKVX cells; type: functional, cell-based
[11] = tested on: HL-60(TB); assay: Antitumor activity against human HL-60(TB) cells; type: functional, cell-based
[12] = tested on: K562; assay: Antitumor activity against human K562 cells; type: functional, cell-based
[13] = tested on: OVCAR-4; assay: Antitumor activity against human OVCAR4 cells; type: functional, cell-based
[14] = tested on: A498; assay: Antitumor activity against human A498 cells; type: functional, cell-based
[15] = tested on: OVCAR-8; assay: Antitumor activity against human OVCAR8 cells; type: functional, cell-based
[16] = tested on: IGROV-1; assay: Antitumor activity against human IGROV1 cells; type: functional, cell-based
[17] = tested on: COLO 205; assay: Antitumor activity against human COLO205 cells; type: functional, cell-based
[18] = tested on: Malme-3M; assay: Antitumor activity against human MALME-3M cells; type: functional, cell-based
[19] = tested on: SF-295; assay: Antitumor activity against human SF295 cells; type: functional, cell-based
[20] = tested on: HCC 2998; assay: Antitumor activity against human HCC2998 cells; type: functional, cell-based
[21] = tested on: OVCAR-3; assay: Antitumor activity against human OVCAR-3 cells; type: functional, cell-based
[22] = tested on: CCRF-CEM; assay: Cytotoxicity against human CEM cells at 6.4 ug/disk by disk diffusion soft agar colony formation assay; type: functional
[23] = tested on: TK-10; assay: Antitumor activity against human TK10 cells; type: functional, cell-based
[24] = tested on: MCF7; assay: Antitumor activity against […] human MCF7 cells; type: functional, cell-based
[25] = tested on: NCI-H522; assay: Antitumor activity against human NCI-H522 cells; type: functional, cell-based
[26] = tested on: SW-620; assay: Antitumor activity against human SW620 cells; type: functional, cell-based
[27] = tested on: NCI-H226; assay: Antitumor activity against human NCI-H226 cells; type: functional, cell-based
[28] = tested on: HCT-116; assay: Antitumor activity against human HCT116 cells; type: functional, cell-based
[29] = tested on: BT-549; assay: Antitumor activity against human BT549 cells; type: functional, cell-based
[30] = tested on: SN12C; assay: Antitumor activity against human SN12C cells; type: functional, cell-based
[31] = tested on: U-251; assay: Antitumor activity against human U251 cells; type: functional, cell-based
[32] = tested on: SK-MEL-28; assay: Antitumor activity against human SK-MEL-28 cells; type: functional, cell-based
[33] = tested on: OVCAR-5; assay: Antitumor activity against human OVCAR5 cells; type: functional, cell-based
[34] = tested on: SK-OV-3; assay: Antitumor activity against human SKOV3 cells; type: functional, cell-based
[35] = tested on: HOP-92; assay: Antitumor activity against human HOP92 cells; type: functional, cell-based
[36] = tested on: MCF7; assay: Antitumor activity against human MCF7 cells; type: functional, cell-based
[37] = Cytotoxicity against human H125 cells at 6.4 ug/disk by disk diffusion soft agar colony formation assay; type: functional
[38] = tested on: KM12; assay: Antitumor activity against human KM12 cells; type: functional, cell-based
[39] = Cytotoxicity against mouse CFU-GM cells at 6.4 ug/disk by disk diffusion soft agar colony formation assay; type: cell-based
[40] = tested on: UACC-257; assay: Antitumor activity against human UACC257 cells; type: functional, cell-based
[41] = tested on: MOLT-4; assay: Antitumor activity against human MOLT4 cells; type: functional, cell-based
[42] = tested on: SNB-75; assay: Antitumor activity against human SNB75 cells; type: functional, cell-based
[43] = tested on: ACHN; assay: Antitumor activity against human ACHN cells; type: functional, cell-based
[44] = tested on: MDA-MB-435; assay: Antitumor activity against human MDA-MB-435 cells; type: functional, cell-based
[45] = tested on: HOP-62; assay: Antitumor activity against human HOP62 cells; type: functional, cell-based
[46] = tested on: SR; assay: Antitumor activity against human SR cells; type: functional, cell-based
[47] = tested on: NCI-H23; assay: Antitumor activity against human NCI-H23 cells; type: functional, cell-based
[48] = tested on: SNB-19; assay: Antitumor activity against human SNB19 cells; type: functional, cell-based
[49] = Antitumor activity against human Hs 578T cells; type: functional, cell-based
[50] = tested on: PC-3; assay: Antitumor activity against human PC3 cells; type: functional, cell-based
[51] = tested on: CAKI-1; assay: Antitumor activity against human Caki1 cells; type: functional, cell-based
[52] = Cytotoxicity against human H116 cells at 6.4 ug/disk by disk diffusion soft agar colony formation assay; type: functional
[53] = tested on: NCI-H460; assay: Antitumor activity against human NCI-H460 cells; type: functional, cell-based
[54] = tested on: M14; assay: Antitumor activity against human M14 cells; type: functional, cell-based
[55] = tested on: UACC-62; assay: Antitumor activity against human UACC62 cells; type: functional, cell-based
[56] = tested on: MC-38; assay: Cytotoxicity against mouse C38 cells at 6.4 ug/disk by disk diffusion soft agar colony formation assay; type: functional
[57] = tested on: SK-MEL-5; assay: Antitumor activity against human SK-MEL-5 cells; type: functional, cell-based
[58] = Antitumor activity against human 786-O cells; type: functional, cell-based; details: 786-0
[59] = tested on: SF-268; assay: Antitumor activity against human SF268 cells; type: functional, cell-based
[60] = tested on: LOX IMVI; assay: Antitumor activity against human LOXIMVI cells; type: functional, cell-based
[61] = tested on: UO-31; assay: Antitumor activity against human UO31 cells; type: functional, cell-based
[62] = tested on: RXF 393; assay: Antitumor activity against human RXF393 cells; type: functional, cell-based
[63] = tested on: NCI-H322M; assay: Antitumor activity against human NCI-H322M cells; type: functional, cell-based
[64] = tested on: CCRF-CEM; assay: Cytotoxicity against human CEM cells at 3.4 ug/disk by disk diffusion soft agar colony formation assay; type: functional
[65] = tested on: CCRF-CEM; assay: Cytotoxicity against human CEM cells at 0.8 ug/disk by disk diffusion soft agar colony formation assay; type: functional
[66] = Cytotoxicity against human H116 cells at 0.8 ug/disk by disk diffusion soft agar colony formation assay; type: functional
[67] = Cytotoxicity against human H125 cells at 0.8 ug/disk by disk diffusion soft agar colony formation assay; type: functional
[68] = Cytotoxicity against human H116 cells at 3.4 ug/disk by disk diffusion soft agar colony formation assay; type: functional
[69] = tested on: L1210; assay: Cytotoxicity against mouse L1210 cells at 3.4 ug/disk by disk diffusion soft agar colony formation assay; type: functional
[70] = Cytotoxicity against mouse CFU-GM cells at 3.4 ug/disk by disk diffusion soft agar colony formation assay; type: cell-based
[71] = tested on: MC-38; assay: Cytotoxicity against mouse C38 cells at 3.4 ug/disk by disk diffusion soft agar colony formation assay; type: functional
[72] = Cytotoxicity against human H125 cells at 3.4 ug/disk by disk diffusion soft agar colony formation assay; type: functional
[73] = tested on: MC-38; assay: Cytotoxicity against mouse C38 cells at 200 ug/disk by disk diffusion soft agar colony formation assay; type: functional
[74] = Cytotoxicity against human H116 cells at 200 ug/disk by disk diffusion soft agar colony formation assay; type: functional
[75] = tested on: L1210; assay: Cytotoxicity against mouse L1210 cells at 200 ug/dusk by disk diffusion soft agar colony formation assay; type: functional
[76] = Cytotoxicity against mouse CFU-GM cells at 200 ug/disk by disk diffusion soft agar colony formation assay; type: cell-based
[77] = tested on: CCRF-CEM; assay: Cytotoxicity against human CEM cells at 84 ug/disk by disk diffusion soft agar colony formation assay; type: functional
[78] = tested on: L1210; assay: Cytotoxicity against mouse L1210 cells at 84 ug/disk by disk diffusion soft agar colony formation assay; type: functional
[79] = Cytotoxicity against human H116 cells at 84 ug/disk by disk diffusion soft agar colony formation assay; type: functional
[80] = Cytotoxicity against mouse CFU-GM cells at 84 ug/disk by disk diffusion soft agar colony formation assay; type: cell-based
[81] = Cytotoxicity against human H125 cells at 84 ug/disk by disk diffusion soft agar colony formation assay; type: functional
[82] = tested on: MC-38; assay: Cytotoxicity against mouse C38 cells at 84 ug/disk by disk diffusion soft agar colony formation assay; type: functional

O=C(O)c1ccc(Br)cc1-[n+]1ccc2c(c1)[nH]c1ccccc12.[Cl-]
Activity [1]: 0 Zone units
Activity [2]: 100 Zone units
Activity [3]: 0 Zone units
Activity [4]: 250 Zone units

O=C1c2ccc(Br)cc2-[n+]2ccc3c([nH]c4ccccc43)c21.[Cl-]
pIC50 [5]: < 5.00
pIC50 [6]: < 5.00
pIC50 [7]: < 5.00
pIC50 [8]: < 5.00
Activity [9]: 500 Zone units
pIC50 [10]: 5.44
pIC50 [11]: < 5.00
pIC50 [12]: < 5.00
pIC50 [13]: 6.23
pIC50 [14]: < 5.00
pIC50 [15]: 6.22
pIC50 [16]: 6.13
pIC50 [17]: < 5.00
pIC50 [18]: 6.31
pIC50 [19]: 6.23
pIC50 [20]: 6.04
pIC50 [21]: 5.36
Activity [22]: 400 Zone units
pIC50 [23]: < 5.00
pIC50 [24]: 5.28
pIC50 [25]: 6.17
pIC50 [26]: < 5.00
pIC50 [27]: 5.28
pIC50 [28]: 6.12
pIC50 [29]: 6.23
pIC50 [30]: 5.54
pIC50 [31]: < 5.00
pIC50 [32]: 5.89
pIC50 [33]: < 5.00
pIC50 [34]: < 5.00
pIC50 [35]: < 5.00
pIC50 [36]: 6.03
Activity [37]: 550 Zone units
pIC50 [38]: 5.07
Activity [39]: 400 Zone units
pIC50 [40]: 5.28
pIC50 [41]: < 5.00
pIC50 [42]: 5.42
pIC50 [43]: < 5.00
pIC50 [44]: < 5.00
pIC50 [45]: < 5.00
pIC50 [46]: < 5.00
pIC50 [47]: 6.05
pIC50 [48]: 6.18
pIC50 [49]: 6.23
pIC50 [50]: < 5.00
pIC50 [51]: 5.80
Activity [52]: 600 Zone units
pIC50 [53]: < 5.00
pIC50 [54]: 6.23
pIC50 [55]: 6.20
Activity [56]: 400 Zone units
pIC50 [57]: < 5.00
pIC50 [58]: 5.15
pIC50 [59]: 5.25
pIC50 [60]: < 5.00
pIC50 [61]: 6.28
pIC50 [62]: 5.51
pIC50 [63]: 6.19

O=C1c2ccccc2-[n+]2ccc3c([nH]c4cc(Br)ccc43)c21.[Cl-]
Activity [64]: 400 Zone units
Activity [65]: 200 Zone units
Activity [66]: 400 Zone units
Activity [67]: 500 Zone units
Activity [68]: 600 Zone units
Activity [69]: 550 Zone units
Activity [70]: 350 Zone units
Activity [71]: 450 Zone units
Activity [72]: 750 Zone units

COC(=O)c1ccc(Br)cc1-[n+]1ccc2c(c1)[nH]c1ccccc12.[Cl-]
Activity [73]: 400 Zone units
Activity [74]: 200 Zone units
Activity [75]: 350 Zone units
Activity [76]: 250 Zone units

Oc1ccc(Br)cc1-[n+]1ccc2c(c1)[nH]c1ccccc12.[Cl-]
Activity [77]: 750 Zone units
Activity [78]: 450 Zone units
Activity [79]: 500 Zone units
Activity [80]: 450 Zone units
Activity [81]: 550 Zone units
Activity [82]: 400 Zone units
